Type in all cases: in vivo, human
One assay has as its system SLC39A8. Put plainly: Cox proportional hazard model using SLC39A8 ΔCt values in qRT-PCR of NSCLC patients treated with chemotherapy. Particulars: SLC39A8 expression. An excerpt:
(§1) Patient samples. All NSCLC patients were staged I, II, or IIIA at the time of diagnosis. Tumor tissues were collected in surgical resections and were then formalin fixed or paraffin embedded until used for RNA extraction. Tumor cell content was above 50% for qRT-PCR assays. Those with missing AJCC staging information, missing histology, death within 30 days of resection or from other disease conditions were excluded from further analysis. A total of 122 NSCLC patient samples were obtained from Case Western Reserve University (CWRU) Comprehensive Cancer Center. […] The tissue collection in this study was approved by an Institutional Review Board (IRB) at each institution.
(§2) RNA extraction, and quality and concentration assessments. […] The quality and integrity of the RNA, the 28S to 18S ratio, and a visual image of the 28S and 18S bands were evaluated on the 2100 Bioanalyzer (Agilent Technologies, CA). […] The RNA concentration of each sample was assessed using a Nanodrop-1000 Spectrophotometer (NanoDrop Tech, Germany). […]
(§3) Real-time quantitative RT-PCR low-density arrays. […]
(§4) Three hundred thirty seven (337) tumor samples were analyzed with good RNA quality using TaqMan microfluidic low-density array (LDA) plates on an ABI 7900HT Fast RT-PCR instrument (Applied Biosystems).

The subject of the next assay is ABCC4. Put plainly: Cox proportional hazard model using ABCC4 ΔCt values in qRT-PCR of NSCLC patients treated with chemotherapy. To be noted: ABCC4 expression; patients treated with the named agent(s).
From the text: as §1, §2, §3, §4
A general note: In qPCR the cycle at which signal appears reflects the starting amount.

For a further assay, the system named is FUT7. Put plainly: Cox proportional hazard model using FUT7 ΔCt values in qRT-PCR of NSCLC patients treated with chemotherapy. Particulars: FUT7 expression.
From the text: Patient samples. All NSCLC patients were staged I, II, or IIIA at the time of diagnosis. Tumor tissues were collected in surgical resections and were then formalin fixed or paraffin embedded until used for RNA extraction. Tumor cell content was above 50% for qRT-PCR assays. Those with missing AJCC staging information, missing histology, death within 30 days of resection or from other disease conditions were excluded from further analysis. A total of 122 NSCLC patient samples were obtained from Case Western Reserve University (CWRU) Comprehensive Cancer Center. Total RNA of good quality was extracted from 89 tumor specimens. […]
RNA extraction, and quality and concentration assessments. […] The quality and integrity of the RNA, the 28S to 18S ratio, and a visual image of the 28S and 18S bands were evaluated on the 2100 Bioanalyzer (Agilent Technologies, CA). RNA assessed as having good quality from […] tumor samples was included for further analysis. The RNA concentration of each sample was assessed using a Nanodrop-1000 Spectrophotometer (NanoDrop Tech, Germany). […]
as §3
Three hundred thirty seven (337) tumor samples were analyzed with good RNA quality using TaqMan microfluidic low-density array (LDA) plates on an ABI 7900HT Fast RT-PCR instrument (Applied Biosystems). Total RNA samples were analyzed on an Agilent 2100 Bioanalyzer RNA 6000 Nano LabChip. […]

Chemosensitive/resistant data for 3 compounds are collected here from patent US20230106465A1, “7-Gene Prognostic and Predictive Assay for Non-Small Cell Lung Cancer in Formalin Fixed and Paraffin Embedded Samples” (West Virginia University, priority 2019, published 2023).

As to `Nc1nc2[nH]cc(CCc3ccc(C(=O)N[C@@H](CCC(=O)O)C(=O)O)cc3)c2c(=O)[nH]1` [Alimta, pemetrexed], the Chemosensitive/resistant entry with SLC39A8 is “Chemoresistant”.

Take `CC(=O)O[C@H]1C(=O)[C@@]2(C)[C@H]([C@H](OC(=O)c3ccccc3)[C@]3(O)C[C@H](OC(=O)[C@H](O)[C@@H](NC(=O)c4ccccc4)c4ccccc4)C(C)=C1C3(C)C)[C@]1(OC(C)=O)CO[C@@H]1C[C@@H]2O` [Taxol, paclitaxel]: the Chemosensitive/resistant result in the assay on ABCC4 and in the assay with SLC39A8 was “Chemoresistant” each time.

Take `N.N.O=C([O-])C1(C(=O)[O-])CCC1.[Pt+2]` [Carboplatin, carboplatin]: the Chemosensitive/resistant entry with FUT7 is listed as “Chemosensitive”.
